Data as given in patent US11267811B2, “Small molecule inhibitors of galectin-3” (BRISTOL-MYERS SQUIBB COMPANY, priority 2017, dated 2022).

target: His-tagged recombinant human Gal-3 (hGal-3) (Homo sapiens (Human), UniProt P17931); assay: Gal-3 HTRF assay (His-tagged hGal-3 binding to B-ASF); details: HTRF, hGal-3 15 nM, B-ASF 15 nM; read-out: hGal-3 IC50;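 further: compounds preincubated 30 min with hGal-3, then 1 h with B-ASF, detection via terbium anti-His antibody and streptavidin d2. Control with B-ASF counts as full signal, omitting B-ASF as background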
Sequence (P17931 whole entry): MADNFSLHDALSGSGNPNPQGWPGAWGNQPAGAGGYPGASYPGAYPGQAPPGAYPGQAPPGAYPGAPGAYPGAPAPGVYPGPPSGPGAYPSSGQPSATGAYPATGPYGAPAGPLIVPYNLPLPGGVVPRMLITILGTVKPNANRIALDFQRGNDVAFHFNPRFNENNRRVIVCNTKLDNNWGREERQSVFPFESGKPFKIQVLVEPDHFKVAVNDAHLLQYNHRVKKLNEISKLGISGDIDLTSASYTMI

IC50	SMILES
930 nM	OC[C@H]1O[C@@H](c2nncn2-c2cccc3cc[nH]c23)[C@H](O)[C@@H](n2cc(-c3cc(F)c(F)c(F)c3)nn2)[C@H]1O [Example 165]
150 nM	Cn1ncc2ccc(-n3cnnc3[C@@H]3O[C@H](CO)[C@H](O)[C@H](n4cc(-c5cc(F)c(F)c(F)c5)nn4)[C@H]3O)cc21 [Example 166]
300 nM	Cn1cc2ccc(-n3cnnc3[C@@H]3O[C@H](CO)[C@H](O)[C@H](n4cc(-c5cc(F)c(F)c(F)c5)nn4)[C@H]3O)cc2n1 [Example 167]
500 nM	Cc1nc2cc(-n3cnnc3[C@@H]3O[C@H](CO)[C@H](O)[C@H](n4cc(-c5cc(F)c(F)c(F)c5)nn4)[C@H]3O)ccc2n1C [Example 168]
280 nM	Cc1nc2ccc(-n3cnnc3[C@@H]3O[C@H](CO)[C@H](O)[C@H](n4cc(-c5cc(F)c(F)c(F)c5)nn4)[C@H]3O)cc2n1C [Example 169]
2000 nM	OCCn1cnnc1[C@@H]1O[C@H](CO)[C@H](O)[C@H](n2cc(-c3cc(F)c(F)c(F)c3)nn2)[C@H]1O [Example 170, (2S,3R,4R,5R,6R)-2-(4-(2-hydroxyethyl)-4H-1,2,4-triazol-3-yl)-6-(hydroxymethyl)-4-(4-(3,4,5-trifluorophenyl)-1H-1,2,3-triazol-1-yl)tetrahydro-2H-pyran-3,5-diol]
2020 nM	OC[C@H]1O[C@@H](c2ncnn2[C@@H]2CCCC[C@H]2O)[C@H](O)[C@@H](n2cc(-c3cc(F)c(F)c(F)c3)nn2)[C@H]1O [Example 171]
3840 nM	OC[C@H]1O[C@@H](c2ncnn2C2CCNCC2)[C@H](O)[C@@H](n2cc(-c3cc(F)c(F)c(F)c3)nn2)[C@H]1O [Example 172]
180 nM	OC[C@H]1O[C@@H](c2ncnn2-c2cccc(Cl)c2)C[C@@H](n2cc(-c3cc(F)c(F)c(F)c3)nn2)[C@H]1O [Example 173, (2R,3R,4R,6R)-6-(1-(3-chlorophenyl)-1H-1,2,4-triazol-5-yl)-2-(hydroxymethyl)-4-(4-(3,4,5-trifluorophenyl)-1H-1,2,3-triazol-1-yl)tetrahydro-2H-pyran-3-ol]
300 nM	OC[C@H]1O[C@@H](c2ncnn2-c2ccc(Cl)c(Cl)c2)C[C@@H](n2cc(-c3cc(F)c(F)c(F)c3)nn2)[C@H]1O [Example 174]
650 nM	NC(=O)c1cccc(-n2ncnc2[C@H]2C[C@@H](n3cc(-c4cc(F)c(F)c(F)c4)nn3)[C@@H](O)[C@@H](CO)O2)c1 [Example 175]
40 nM	Cc1nc2ccc(-n3ncnc3[C@H]3C[C@@H](n4cc(-c5cc(F)c(F)c(F)c5)nn4)[C@@H](O)[C@@H](CO)O3)cc2s1 [Example 176]
130 nM	OC[C@H]1O[C@@H](c2ncnn2-c2cc(Cl)ccc2Cl)C[C@@H](n2cc(-c3cc(F)c(F)c(F)c3)nn2)[C@H]1O [Example 177]
250 nM	Cc1ccc(Cl)cc1-n1ncnc1[C@H]1C[C@@H](n2cc(-c3cc(F)c(F)c(F)c3)nn2)[C@@H](O)[C@@H](CO)O1 [Example 178]
250 nM	OC[C@H]1O[C@@H](c2ncnn2-c2cc(Cl)ccc2F)C[C@@H](n2cc(-c3cc(F)c(F)c(F)c3)nn2)[C@H]1O [Example 179]
210 nM	COc1ccc(Cl)cc1-n1ncnc1[C@H]1C[C@@H](n2cc(-c3cc(F)c(F)c(F)c3)nn2)[C@@H](O)[C@@H](CO)O1 [Example 180]
40 nM	OC[C@H]1O[C@@H](c2ncnn2-c2ccc3ncsc3c2)C[C@@H](n2cc(-c3cc(F)c(F)c(F)c3)nn2)[C@H]1O [Example 181]
120 nM	Cc1nc2cc(Cl)c(-n3ncnc3[C@H]3C[C@@H](n4cc(-c5cc(F)c(F)c(F)c5)nn4)[C@@H](O)[C@@H](CO)O3)cc2s1 [Example 182]

IC50	SMILES
160 nM	COc1ccc(Cl)cc1-n1nc(C)nc1[C@H]1C[C@@H](n2cc(-c3cc(F)c(F)c(F)c3)nn2)[C@@H](O)[C@@H](CO)O1 [Example 183, (2R,3R,4R,6R)-6-(1-(5-chloro-2-methoxyphenyl)-3-methyl-1H-1,2,4-triazol-5-yl)-2-(hydroxymethyl)-4-(4-(3,4,5-trifluorophenyl)-1H-1,2,3-triazol-1-yl)tetrahydro-2H-pyran-3-ol]
90 nM	Cc1nc([C@H]2C[C@@H](n3cc(-c4cc(F)c(F)c(F)c4)nn3)[C@@H](O)[C@@H](CO)O2)n(-c2cc(Cl)ccc2C)n1 [Example 184]
170 nM	Cc1nc([C@H]2C[C@@H](n3cc(-c4cc(F)c(F)c(F)c4)nn3)[C@@H](O)[C@@H](CO)O2)n(-c2cc(Cl)ccc2F)n1 [Example 185]
50 nM	Cc1nc([C@H]2C[C@@H](n3cc(-c4cc(F)c(F)c(F)c4)nn3)[C@@H](O)[C@@H](CO)O2)n(-c2ccc3ncsc3c2)n1 [Example 186]
110 nM	Cc1nc([C@H]2C[C@@H](n3cc(-c4cc(F)c(F)c(F)c4)nn3)[C@@H](O)[C@@H](CO)O2)n(-c2ccc3nc(C)sc3c2)n1 [Example 187]
90 nM	CO[C@@H]1[C@@H](n2cc(-c3cc(F)c(F)c(F)c3)nn2)[C@@H](O)[C@@H](CO)O[C@H]1c1ncnn1-c1cccc(Cl)c1 [Example 189]
180 nM	CO[C@@H]1[C@@H](n2cc(-c3cc(F)c(F)c(F)c3)nn2)[C@@H](O)[C@@H](CO)O[C@H]1c1ncnn1-c1ccc(Cl)c(Cl)c1 [Example 190]
60 nM	CO[C@@H]1[C@@H](n2cc(-c3cc(F)c(F)c(F)c3)nn2)[C@@H](O)[C@@H](CO)O[C@H]1c1ncnn1-c1ccc2nc(C)sc2c1 [Example 191]
40 nM	CO[C@@H]1[C@@H](n2cc(-c3cc(F)c(F)c(F)c3)nn2)[C@@H](O)[C@@H](CO)O[C@H]1c1ncnn1-c1ccc2ncsc2c1 [Example 192]
180 nM	Cc1nc2ccc(-n3ncnc3[C@@H]3O[C@H](CO)[C@H](O)[C@H](n4cc(C(=O)NC5CC5)nn4)[C@H]3O)cc2s1 [Example 193, N-cyclopropyl-1-((2R,3R,4R,5R,6S)-3,5-dihydroxy-2-(hydroxymethyl)-6-(1-(2-methylbenzo[d]thiazol-6-yl)-1H-1,2,4-triazol-5-yl)tetrahydro-2H-pyran-4-yl)-1H-1,2,3-triazole-4-carboxamide]
4090 nM	Cc1nc2ccc(-n3ncnc3[C@@H]3O[C@H](CO)[C@H](O)[C@H](n4cc(C(N)=O)nn4)[C@H]3O)cc2s1 [Example 194]
1160 nM	CNC(=O)c1cn([C@H]2[C@@H](O)[C@@H](CO)O[C@@H](c3ncnn3-c3ccc4nc(C)sc4c3)[C@@H]2O)nn1 [Example 195]
5650 nM	Cc1nc2ccc(-n3ncnc3[C@@H]3O[C@H](CO)[C@H](O)[C@H](n4cc(C(=O)N(C)C)nn4)[C@H]3O)cc2s1 [Example 196]
1320 nM	Cc1nc2ccc(-n3ncnc3[C@@H]3O[C@H](CO)[C@H](O)[C@H](n4cc(C(=O)NC5CCCC5)nn4)[C@H]3O)cc2s1 [Example 197]
1020 nM	Cc1nc2ccc(-n3ncnc3[C@@H]3O[C@H](CO)[C@H](O)[C@H](n4cc(C(=O)NC5CCCCC5)nn4)[C@H]3O)cc2s1 [Example 198]
360 nM	Cc1nc2ccc(-n3ncnc3[C@@H]3O[C@H](CO)[C@H](O)[C@H](n4cc(C(=O)NC5CCC5)nn4)[C@H]3O)cc2s1 [Example 199]
860 nM	Cc1nc2ccc(-n3ncnc3[C@@H]3O[C@H](CO)[C@H](O)[C@H](n4cc(C(=O)NCc5cccc(F)c5)nn4)[C@H]3O)cc2s1 [Example 200]
350 nM	Cc1nc2ccc(-n3ncnc3[C@@H]3O[C@H](CO)[C@H](O)[C@H](n4cc(-c5ccc(C6CC6)c(F)c5)nn4)[C@H]3O)cc2s1 [Example 201, (2R,3R,4R,5R,6S)-4-(4-(4-cyclopropyl-3-fluorophenyl)-1H-1,2,3-triazol-1-yl)-2-(hydroxymethyl)-6-(1-(2-methylbenzo[d]thiazol-6-yl)-1H-1,2,4-triazol-5-yl)tetrahydro-2H-pyran-3,5-diol]

same assay, conditions: read-out: hGal3 IC50

IC50	SMILES
440 nM	Cc1nc2ccc(-n3ncnc3[C@@H]3O[C@H](CO)[C@H](O)[C@H](n4cc(-c5ccc(N)c(F)c5)nn4)[C@H]3O)cc2s1 [Example 202]
2120 nM	Cc1nc2ccc(-n3ncnc3[C@@H]3O[C@H](CO)[C@H](O)[C@H](n4cc(-c5ccc(NS(C)(=O)=O)c(F)c5)nn4)[C@H]3O)cc2s1 [Example 203]
5000 nM	CC(=O)Nc1ccc(-c2cn([C@H]3[C@@H](O)[C@@H](CO)O[C@@H](c4ncnn4-c4ccc5nc(C)sc5c4)[C@@H]3O)nn2)cc1F [Example 204]
1110 nM	COC(=O)Nc1ccc(-c2cn([C@H]3[C@@H](O)[C@@H](CO)O[C@@H](c4ncnn4-c4ccc5nc(C)sc5c4)[C@@H]3O)nn2)cc1F [Example 205]
1540 nM	Cc1nc2ccc(-n3ncnc3[C@@H]3O[C@H](CO)[C@H](O)[C@H](n4cc(-c5ccc(N(C)C)c(F)c5)nn4)[C@H]3O)cc2s1 [Example 206]
740 nM	CNc1ccc(-c2cn([C@H]3[C@@H](O)[C@@H](CO)O[C@@H](c4ncnn4-c4ccc5nc(C)sc5c4)[C@@H]3O)nn2)cc1F [Example 207]
3820 nM	Cc1nc2ccc(-n3ncnc3[C@@H]3O[C@H](CO)[C@H](O)[C@H](n4cc(-c5ccc(N(C)S(C)(=O)=O)c(F)c5)nn4)[C@H]3O)cc2s1 [Example 208]
80 nM	Cc1nc2ccc(-n3ncnc3[C@@H]3O[C@H](CO)[C@H](O)[C@H](n4cc(-c5ccc(C(F)(F)F)c(F)c5)nn4)[C@H]3O)cc2s1 [Example 209]
40 nM	Cc1nc2ccc(-n3ncnc3[C@@H]3O[C@H](CO)[C@H](O)[C@H](n4cc(-c5cc(F)c(Cl)c(F)c5)nn4)[C@H]3O)cc2s1 [Example 210]
60 nM	Cc1nc2ccc(-n3ncnc3[C@@H]3O[C@H](CO)[C@H](O)[C@H](n4cc(-c5ccc(Cl)c(Cl)c5)nn4)[C@H]3O)cc2s1 [Example 211]
60 nM	Cc1nc2ccc(-n3ncnc3[C@@H]3O[C@H](CO)[C@H](O)[C@H](n4cc(-c5ccc(C)c(F)c5)nn4)[C@H]3O)cc2s1 [Example 212]
120 nM	Cc1nc2ccc(-n3ncnc3[C@@H]3O[C@H](CO)[C@H](O)[C@H](n4cc(-c5cccc(F)c5)nn4)[C@H]3O)cc2s1 [Example 213]
600 nM	Cc1nc2ccc(-n3ncnc3[C@@H]3O[C@H](CO)[C@H](O)[C@H](n4cc(-c5ccccc5)nn4)[C@H]3O)cc2s1 [Example 214]
140 nM	Cc1nc2ccc(-n3ncnc3[C@@H]3O[C@H](CO)[C@H](O)[C@H](n4cc(-c5cc(F)cc(F)c5)nn4)[C@H]3O)cc2s1 [Example 215]
